In US20180055816A1, “PYRANONAPHTHOQUINONE COMPOUNDS AND METHODS OF USE THEREOF” (University of Kentucky Research Foundation, priority 2016, published 2018):
“Also recorded” adds a separate entry of the source.

What was measured:
[1] = test system: p70S6K phosphorylation; test: p70S6K phosphorylation in HCT116 cells (Western blot); format: cell-based, human; conditions: HCT116, 12 h; 2 μM FB or UCF76-A, 100 nM rapamycin, 0.5 μM AZD8055
Description: (§1) HCT116 cells were treated with 1 μM MK2206 and 100 nM PD0325901 alone and in combination, 100 nM rapamycin, 0.5 μM AZD8055, 2 μM UCF76-A or 2 μM FB for 12 h followed by Western blot analysis for the indicated proteins.
(§2) Cells were lysed in NP-40 lysis buffer (50 mM Tris-HCl, pH 7.5, 150 mM NaCl, 1 mM EDTA, 1% NP-40, 10% glycerol, protease and phosphatase inhibitor cocktail). Western blot analysis were performed using equivalent total protein loadings as described previously. For immunoprecipitation, the cell lysates were incubated with the indicated antibody overnight followed by incubation with a 50% slurry of protein G sepharose beads for 3 h at 4° C. The beads were washed three times with the lysis buffer, and the immunoprecipitated protein complexes were resuspended in 2× Laemmli sample buffer followed by western blot analysis.

[2] = test system: S6 phosphorylation; test: S6 phosphorylation in HCT116 cells (Western blot); format: cell-based, human; conditions: HCT116, 12 h; 2 μM FB or UCF76-A, 100 nM rapamycin, 0.5 μM AZD8055
Description: as §1, §2

[3] = test system: AKT phosphorylation; test: AKT phosphorylation in HCT116 cells (Western blot); format: cell-based, human; conditions: HCT116, 12 h; 2 μM FB or UCF76-A, 0.5 μM AZD8055, 1 μM MK2206
Description: as §1, §2

[4] = test system: 4E-BP1 phosphorylation; test: Inhibition of 4E-BP1 phosphorylation in HCT116 cells (Western blot); format: cell-based, human; conditions: for inhibition of 4E-BP1 phosphorylation: 12 h
Description: (§3) Compounds that pass this single dose filter are then tested in a CRC (HCT116) in vitro cytotoxicity assay and, in parallel, an in vitro assay to assess propensity for intracellular reactive oxygen species (ROS) production using the redox sensitive probe CeIIROX® Deep Red reagent (Invitrogen) by flow cytometry analysis (47).
as §2

[5] = target: T1, Prx1 (Homo sapiens, UniProt Q06830); test: Prx1 catalytic activity inhibition; format: biochemical; conditions: recombinant Prx1, 1 hour incubation
T1 sequence (Q06830 1-199): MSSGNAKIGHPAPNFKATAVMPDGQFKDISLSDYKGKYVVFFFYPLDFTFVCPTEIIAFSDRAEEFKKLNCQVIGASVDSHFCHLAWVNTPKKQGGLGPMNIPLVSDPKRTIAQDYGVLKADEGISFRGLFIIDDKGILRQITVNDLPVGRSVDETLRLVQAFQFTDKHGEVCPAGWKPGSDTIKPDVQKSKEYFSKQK
Description: The recombinant Prx1 protein was incubated with the indicated concentration of FB, 12, or conoidin A for 1 hour. Data are presented as mean±s.e.m. (n=3 technical replicates per condition). […]. Statistical significance was determined by the Student's t-test.
Prx1 and Grx3 are antioxidant enzymes known to regulate oxidative stress. Prx1 catalyzes peroxide reduction of H2O2, whereas Grx3 functions as glutathione (GSH)-dependent oxidoreductase by participating in the conversion of reduced GSH to oxidized glutathione disulfide (GSSG). […] While Grx3 biochemical assays are lacking, FB and active analogs could lead to a decrease in GSH levels and an increase in GSSG levels in HCT116 cells (FIGS. 23A-B). As antioxidant enzymes utilize cysteine-containing active sites to reduce various cellular peroxide or disulfide substrates, the role of Prx1/Grx3 cysteines in FB ligand-binding was assessed through replacing their cysteines to alanines. […] Finally, mass spectrometry analysis confirmed the covalent modification of Prx1 and Grx3 by FB at these specific target sites. These cumulative studies provide strong validation of Prx1 and Grx3 as the predominate molecular targets of PNQs in cancer cells.

[6] = test system: HCT116 cells; test: Apoptosis assay (propidium iodide/Annexin V flow cytometry) in HCT116 cells; format: cell-based, human; conditions: HCT116, 72 hours
Description: (A) HCT116 cells were treated with different concentrations of FB and 12 for 12 hours. Cell lysates were precipitated with m^7GTP sepharose beads followed by Western blot analysis for the indicated proteins. (B) Inhibition of cap-dependent translation activity in HCT116 cells that were treated with the indicated compounds or DMSO as control for 12 hours was determined and analyzed as in FIG. 10A. (C) and (D) HCT116 cells were treated with different concentrations of FB and 12 for 72 hours. Apoptotic cells were analyzed by propidium iodide/Annexin V staining and flow cytometry (C). The results are expressed as the increased levels of apoptosis (D) by subtracting each of the DMSO-treated controls. All graphic data are presented as mean±s.e.m. (n=3 technical replicates per condition). *P<0.001 for 12 versus FB. Statistical significance was determined by the Student's t-test.
(§4) Cell growth was assessed as described previously. Briefly, 5×10^4 cells were seeded in 6-well plates in triplicates. After 24 h, cells were treated with the indicated compounds and incubated at 37° C. The cells were cultured for 3 days and the number of viable cells was counted using the Vi-CELL XR 2.03 (Beckman Coulter, Brea, Calif.). For apoptosis, cells were analyzed by flow cytometry using the Annexin V-FITC Apoptosis Detection Kit according to the manufacturer's protocol (BD Biosciences, San Jose, Calif.).

[7] = test system: cap-dependent translation; test: Cap-dependent translation bicistronic luciferase reporter assay in HCT116 cells; format: cell-based, human; conditions: 12 h
[8] = Tolerability in tumor-bearing nude mice (body weight, maximum tolerated dose); format: in vivo
Description: Mice bearing HCT116 or DLD-1 CRC xenograft tumors were treated with compound 14 at 14 mg/kg or with vehicle control once per day for 5 consecutive days each week. The mouse body weight was measured twice per week in control and treated groups using a weighing scale. The results represent the mean body weight±s.e.m. (n=8 mice/group). *P>0.05 for 14 versus vehicle control in HCT116 or DLD-1 xenograft tumors. Statistical significance was determined by the Student's t-test.
Male athymic nude mice (5-6 weeks old) were purchased from Taconic (Hudson, N.Y., USA). Experiments were carried out under a protocol approved by the University of Kentucky Institutional Animal Care and Use Committee. HCT116 and DLD-1 xenograft tumors were established by subcutaneously injecting 3×10^6 cells in a 1:1 mixture of media and Matrigel (BD Biosciences) into the right flank. For efficacy studies, mice were randomized among control and treated groups (n=8 per group) when tumors were well-established (˜120 mm^3). Compound 14 was prepared freshly in saline and administered by intraperitoneal injection at 14 mg/kg once per day, Mon-Fri per week. Control mice received saline solution. Tumor dimensions were measured using a caliper and tumor volumes were calculated as mm^3=π/6× larger diameter×(smaller diameter)^2. […]

[9] = test system: 4E-BP1 phosphorylation; test: Western blot of xenograft tumor extracts; format: in vivo, mice; conditions: HCT116 or DLD-1 xenograft tumors, 6 h after the final treatment, 14 mg/kg
Description: FIGS. 34A-B. FB induces ROS production to repress 4E-BP1 phosphorylation and tumor growth in vivo. (A) Western blot analysis of representative tumors collected from mice in FIG. 32 6 h after the final treatment with 14 or vehicle control. (B) A proposed model for the anticancer mechanism of FB through targeting Prx1/Grx3 to induce ROS accumulation leading to inhibition of mTORC1/4E-BP1-mediated tarnaltion.
(§5) Male athymic nude mice (5-6 weeks old) were purchased from Taconic (Hudson, N.Y., USA). Experiments were carried out under a protocol approved by the University of Kentucky Institutional Animal Care and Use Committee. HCT116 and DLD-1 xenograft tumors were established by subcutaneously injecting 3×10^6 cells in a 1:1 mixture of media and Matrigel (BD Biosciences) into the right flank. For efficacy studies, mice were randomized among control and treated groups (n=8 per group) when tumors were well-established (˜120 mm^3). Compound 14 was prepared freshly in saline and administered by intraperitoneal injection at 14 mg/kg once per day, Mon-Fri per week. Control mice received saline solution. Tumor dimensions were measured using a caliper and tumor volumes were calculated as mm^3=π/6× larger diameter×(smaller diameter)^2. Tumors were excised and snap frozen in liquid nitrogen, homogenized in 2% SDS lysis buffer and then processed for Western blot analysis as described previously^5.

[10] = test system: DLD-1 xenograft tumors; test: DLD-1 colon cancer xenograft in nude mice; format: in vivo; conditions: 14 mg/kg intraperitoneal, daily five days a week, 2 weeks
Description: as §5

[11] = Aqueous solubility
[12] = test system: HCT116 xenograft tumors; test: HCT116 colon cancer xenograft in nude mice; format: in vivo; conditions: 14 mg/kg intraperitoneal, daily five days a week, 2 weeks
Description: as §5

[13] = test system: intracellular reactive oxygen species (ROS); test: Intracellular ROS production, CellROX Deep Red flow cytometry, HCT116 cells; format: cell-based, human
Description: as §3
The ROS production was determined using the CellROX Deep Red Flow Cytometry Assay Kit according to the manufacturer's protocol (Life Technologies). Briefly, cells were treated with 2 μM of the indicated compounds or DMSO as control for 1 h. After treatment, cells were incubated with 0.5 μM of CellROX Deep Red reagent for 1 h at 37° C., washed twice with PBS and immediately analyzed by a FACScan flow cytometer. For the measurement of cellular H2O2 level, cells were treated with 2 μM of the indicated compounds for 5 h.

[14] = test system: HCT116 cells; test: Cell growth / cytotoxicity in HCT116 cells; format: cell-based, human; conditions: Homo sapiens, HCT-116; colorectal cancer cell line HCT116
Description: as §3, §4

COc1ccc(-c2ccc3c(N4CCOC[C@@H]4C)nc(N4CCOC[C@@H]4C)nc3n2)cc1CO [AZD8055]
inhibition of p70S6K phosphorylation [1]: potently inhibited
inhibition of S6 phosphorylation [2]: potently inhibited
inhibition of AKT phosphorylation [3]: inhibited

O=C1C[C@H]2O[C@@H](CCC(F)(F)F)C3=C(C(=O)c4c(Cl)ccc(O)c4C3=O)[C@H]2O1 [Compound 12, (3aR,5S,11bR)-10-Chloro-7-hydroxy-5-(3,3,3-trifluoropropyl)-3,3a,5,11b-tetrahydro-2H-benzo[g]furo[3,2-c]isochromene-2,6,11-trione]
fold more potent than FB as an inhibitor of 4E-BP1 phosphorylation ([4]; relative to FB): up to 4 fold
inhibition of Prx1 catalytic activity [5]: potently inhibit
induction of apoptosis compared with FB [6]: more potent that FB
inhibition of cap-dependent translation [7]: more potent that FB

O=C1C[C@H]2O[C@@H](CCC(F)(F)F)C3=C(C(=O)c4c(Cl)ccc(OP(=O)(O)O)c4C3=O)[C@H]2O1 [Compound 14, (3aR,5S,11bR)-10-Chloro-2,6,11-trioxo-5-(3,3,3-trifluoropropyl)-3,3a,5,6,11,11b-hexahydro-2H-benzo[g]furo[3,2-c]isochromen-7-yl dihydrogen phosphate]
body weight loss ([8]; 14 mg/kg once per day, 5 days each week, HCT116 or DLD-1 xenograft mice): without significant weight loss; also recorded: does not cause significant weight loss
MTD ([8]; male, athymic nude, mouse, in vivo, intraperitoneal, 14 mg/kg, nude mice): 14 mg/kg
4E-BP1 phosphorylation in tumor extracts [9]: inhibition of 4E-BP1 phosphorylation
tumor reduction [10]: 56%
aqueous solubility [11]: aqueous soluble
tumor reduction [12]: 64%

C[C@@H]1CC(=O)[C@@H](O)[C@]2(O1)O[C@@H]1CC(=O)O[C@@H]1C1=C2C(=O)c2c(O)cccc2C1=O [GC, griseusen C]
ROS production compared with b47 [13]: slightly lower
inhibition of 4E-BP1 phosphorylation [4]: notable inhibition
IC50 [14]: 127 nM

NC1(c2ccc(-c3nc4ccn5c(=O)[nH]nc5c4cc3-c3ccccc3)cc2)CCC1 [MK2206]
inhibition of 4E-BP1 phosphorylation [4]: negligible modulation
inhibition of AKT phosphorylation [3]: effective inhibition
